Results reported in patent publication US7750047B2, “Modulators (inhibitors/activators) of histone acetyltransferases” (Jawaharlal Nehru Centre for Advanced Scientific Research, priority 2002, dated 2010).
Where two headings read alike, the source gives them in different places.

What was measured:
[1] = test system: histone acetyltransferases; experiment: HAT inhibition test of salicylic acid and benzoic acid; type: biochemical
Protocol: (§1) HAT assays were performed as described elsewhere (12). Briefly, indicated amounts of proteins/peptide were incubated in HAT-assay buffer containing 50 Mm Tris-HCl, Ph 8.0, 10% (v/v) glycerol, 1 Mm dithiothreitol, 1 Mm phenylmethyl sulfonyl fluoride, 0.1 Mm EDTA, Ph 8.0, 10 Mm sodium butyrate at 30° C. for 10 min in presence or absence of compound followed by the addition of 1 pi of 6.2 Ci/mmol [^3H]-acetyl Coenzyme A (acetyl-CoA) and were further incubated for another 10 min. The final reaction volume was 30 ul. The reaction mixture was then blotted onto P-81 (Whatman) filter papers and radioactive counts were recorded on a Wallac 1409 liquid scintillation counter.

PCAF = target: T1, PCAF (Homo sapiens, UniProt Q92831); experiment: HAT assay (filter binding) with PCAF and core histones; type: biochemical
T1 construct: FLAG; made in house; host or cells: insect cell line (printed 'Si 217', probably Sf21), recombinant baculovirus
T1 sequence (Q92831 whole entry): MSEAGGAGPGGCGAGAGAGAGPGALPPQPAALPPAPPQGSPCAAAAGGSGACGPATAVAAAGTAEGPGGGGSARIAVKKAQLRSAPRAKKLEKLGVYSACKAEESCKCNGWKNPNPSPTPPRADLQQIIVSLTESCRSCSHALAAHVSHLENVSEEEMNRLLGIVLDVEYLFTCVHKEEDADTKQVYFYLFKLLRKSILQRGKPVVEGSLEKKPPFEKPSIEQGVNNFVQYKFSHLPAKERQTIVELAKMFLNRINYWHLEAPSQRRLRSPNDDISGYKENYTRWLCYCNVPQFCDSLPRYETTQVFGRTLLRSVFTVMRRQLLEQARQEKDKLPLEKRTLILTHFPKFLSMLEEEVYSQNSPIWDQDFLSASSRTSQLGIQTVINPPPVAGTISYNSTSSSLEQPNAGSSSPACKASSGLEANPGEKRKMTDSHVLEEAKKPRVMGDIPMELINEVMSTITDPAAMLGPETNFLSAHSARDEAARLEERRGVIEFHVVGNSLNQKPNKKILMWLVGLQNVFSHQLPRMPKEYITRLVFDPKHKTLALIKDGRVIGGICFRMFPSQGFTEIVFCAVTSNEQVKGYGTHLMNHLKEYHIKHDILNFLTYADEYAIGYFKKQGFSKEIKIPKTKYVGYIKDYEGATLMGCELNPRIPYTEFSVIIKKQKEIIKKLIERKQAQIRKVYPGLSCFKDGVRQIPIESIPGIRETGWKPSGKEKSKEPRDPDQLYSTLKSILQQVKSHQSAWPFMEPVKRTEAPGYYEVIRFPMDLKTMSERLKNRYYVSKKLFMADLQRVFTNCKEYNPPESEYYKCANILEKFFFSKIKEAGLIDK
Source text: (§2) B: Biochemical Methods: Purification of Human Core Histones and Recombinant Proteins-Human core histones were purified from HeLa nuclear pellet as described previously (12). The FLAG epitope tagged Human Topoisomerase I, histone deacetylase 1 (HDAC1) and PCAF, were purified from the recombinant baculovirus infected insect cell line, Si 217 by the immunoaffinity purification using M2-agarose (SIGMA)(13). Full-length p300 was also purified from the recombinant baculovirus infected Sf21 cells as a His6-tagged protein through the Ni-NTA affinity column (Qiagen) as described previously (12). The His6-tagged nucleosome assembly protein 1 (NAP1), used for the in vitro chromatin assembly was purified from E. coli cells as previously reported (12) and the FLAG-tagged chimeric activator Ga14-VP16, expressed in E. coli and purified by immunoaffinity purification with M2 agarose. Human positive transcriptional coactivator, PC4, was expressed in E. coli and purified as described earlier (14).
HAT assays were performed as described elsewhere (12). […] The reaction mixture was then blotted onto P-81 (Whatman) filter papers and radioactive counts were recorded on a Wallac 1409 liquid scintillation counter.

[2] = test system: basal transcription machinery; experiment: In vitro transcription assay from histone-free DNA template; type: biochemical, human; conditions: compared to DMSO control
Protocol: (§3) In Vitro Transcription Assay: Transcription assays were essentially carried out as described elsewhere (8), with minor modifications. The scheme of transcription is enumerated in FIG. 6A. Briefly, 30 ng of DNA/equivalent amount of chromatin template was incubated with 30 ng of activator (Gal4-VP16) in a buffer containing 4 mM HEPES (pH 7.8), 20 mM KCl, 2 mM DTT, 0.2 mM PMSF, 10 mM sodium butyrate, 0.1 mg/ml BSA, 2% glycerol (8). The activating compounds were added to the acetylation reaction along with p300 and acetyl-CoA, and incubated for 30 min. at 30° C. This was followed by addition of the p300 specific inhibitor Lysyl CoA (5 nom) to quench the acetylation reaction.
(§4) For inhibitors, the HAT p300 was pre-incubated with indicated amounts of inhibitor on ice for 20 min., following which it was added to the acetylation reaction in the transcription assay. For the DNA transcription assays and chromatin transcription inhibition assays, the Lysyl CoA step was omitted. […] The ^32P-radiolabeled transcript was extracted with phenol-chloroform, ethanol precipitated, dried pellet dissolved in loading dye (8 M Urea, 0.005% bromophenol blue and xylene cyanol) and analyzed on 5% urea-polyacrylamide gel. […] Quantification of transcription was done by Fuji BAS system. Quantitation of DNA and chromatin transcription data represents three independent experiments.

p300 [3] = target: T2, p300 (Homo sapiens, UniProt Q09472); experiment: HAT assay (filter binding) with p300 and core histones; type: biochemical; parameters: Full-length p300 was also purified from the recombinant baculovirus infected Sf21 cells as a His6-tagged protein; His6; made in house; host or cells: Sf21 insect cells (recombinant baculovirus)
Source text: as §2, §1
Target sequence in this assay (Q09472 whole entry): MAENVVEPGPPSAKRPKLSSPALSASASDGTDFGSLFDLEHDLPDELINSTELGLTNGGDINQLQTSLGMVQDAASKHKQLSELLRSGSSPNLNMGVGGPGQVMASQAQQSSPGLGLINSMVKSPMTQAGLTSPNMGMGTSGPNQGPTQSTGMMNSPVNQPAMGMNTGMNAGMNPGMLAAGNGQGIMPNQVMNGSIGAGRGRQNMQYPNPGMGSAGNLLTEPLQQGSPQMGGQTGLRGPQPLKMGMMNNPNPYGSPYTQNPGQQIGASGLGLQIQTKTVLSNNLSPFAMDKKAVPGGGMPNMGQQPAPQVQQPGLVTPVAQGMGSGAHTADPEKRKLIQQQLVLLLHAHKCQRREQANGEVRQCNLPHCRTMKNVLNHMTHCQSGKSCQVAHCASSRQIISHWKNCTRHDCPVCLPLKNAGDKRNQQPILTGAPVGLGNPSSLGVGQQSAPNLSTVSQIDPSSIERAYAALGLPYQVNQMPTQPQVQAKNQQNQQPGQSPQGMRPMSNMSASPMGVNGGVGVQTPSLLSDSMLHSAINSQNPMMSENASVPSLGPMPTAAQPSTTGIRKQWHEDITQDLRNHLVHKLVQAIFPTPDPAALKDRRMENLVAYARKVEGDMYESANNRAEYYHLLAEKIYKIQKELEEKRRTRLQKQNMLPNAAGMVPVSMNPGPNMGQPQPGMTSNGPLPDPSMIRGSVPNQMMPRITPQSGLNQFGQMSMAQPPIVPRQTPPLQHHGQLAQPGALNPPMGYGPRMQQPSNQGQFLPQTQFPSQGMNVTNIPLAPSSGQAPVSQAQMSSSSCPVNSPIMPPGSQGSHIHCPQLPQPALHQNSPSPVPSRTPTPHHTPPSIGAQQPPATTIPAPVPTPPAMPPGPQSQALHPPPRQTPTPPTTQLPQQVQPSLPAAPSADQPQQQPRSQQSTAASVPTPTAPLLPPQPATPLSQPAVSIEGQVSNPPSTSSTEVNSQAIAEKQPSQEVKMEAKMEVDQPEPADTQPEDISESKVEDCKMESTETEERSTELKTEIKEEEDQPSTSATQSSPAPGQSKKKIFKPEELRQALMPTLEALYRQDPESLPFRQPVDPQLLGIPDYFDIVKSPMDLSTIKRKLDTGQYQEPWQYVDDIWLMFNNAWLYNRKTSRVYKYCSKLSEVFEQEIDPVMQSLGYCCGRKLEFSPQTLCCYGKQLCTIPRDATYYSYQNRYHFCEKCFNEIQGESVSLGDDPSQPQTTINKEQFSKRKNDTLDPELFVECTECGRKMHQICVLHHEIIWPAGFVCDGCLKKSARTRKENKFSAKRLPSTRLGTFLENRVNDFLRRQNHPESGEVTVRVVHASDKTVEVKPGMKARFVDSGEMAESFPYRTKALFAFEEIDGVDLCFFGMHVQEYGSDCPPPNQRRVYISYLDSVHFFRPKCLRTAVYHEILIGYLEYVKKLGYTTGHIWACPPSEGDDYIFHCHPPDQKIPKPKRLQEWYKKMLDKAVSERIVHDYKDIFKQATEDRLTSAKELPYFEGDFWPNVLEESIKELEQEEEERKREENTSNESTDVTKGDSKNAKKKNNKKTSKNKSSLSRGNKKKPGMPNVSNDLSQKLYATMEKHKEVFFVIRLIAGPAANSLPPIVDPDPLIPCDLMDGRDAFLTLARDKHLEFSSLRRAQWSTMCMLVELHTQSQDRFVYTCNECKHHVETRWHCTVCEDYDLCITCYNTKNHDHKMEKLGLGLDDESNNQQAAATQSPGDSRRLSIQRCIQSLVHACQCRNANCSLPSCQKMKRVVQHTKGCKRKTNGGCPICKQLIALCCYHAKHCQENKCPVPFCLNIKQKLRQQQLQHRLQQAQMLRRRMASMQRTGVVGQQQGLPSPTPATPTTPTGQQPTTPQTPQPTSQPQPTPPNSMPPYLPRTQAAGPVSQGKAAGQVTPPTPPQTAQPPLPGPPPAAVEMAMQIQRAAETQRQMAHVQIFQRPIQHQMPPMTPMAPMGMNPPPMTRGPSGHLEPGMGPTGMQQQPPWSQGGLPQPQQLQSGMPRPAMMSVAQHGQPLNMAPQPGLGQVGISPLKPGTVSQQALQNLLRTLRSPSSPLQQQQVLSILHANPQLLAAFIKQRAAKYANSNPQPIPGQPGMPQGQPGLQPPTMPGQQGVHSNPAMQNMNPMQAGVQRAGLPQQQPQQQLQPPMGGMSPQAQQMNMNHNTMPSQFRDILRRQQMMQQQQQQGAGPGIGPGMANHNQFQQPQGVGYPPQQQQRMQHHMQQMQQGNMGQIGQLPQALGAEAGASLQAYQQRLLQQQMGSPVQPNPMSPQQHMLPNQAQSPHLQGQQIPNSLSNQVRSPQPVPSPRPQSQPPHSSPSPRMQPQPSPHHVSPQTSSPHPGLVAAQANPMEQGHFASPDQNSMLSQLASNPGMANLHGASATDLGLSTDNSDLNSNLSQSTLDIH
In order to characterize the inhibition kinetics of anacardic acid, filter-binding assays were done using constant amount of HeLa core histones in the presence or absence of AA with increasing concentrations of [3H]-acetyl CoA (see FIG. 3E). To visualize the radiolabeled acetylated histones, the reaction mixtures were resolved on 15% SDS-PAGE and processed for fluorography as described elsewhere (14).

p300 [4] = target: T2, p300; experiment: In vitro p300 HAT-dependent transcription assay from chromatin template; type: biochemical; parameters: Full-length p300 was also purified from the recombinant baculovirus infected Sf21 cells as a His6-tagged protein; His6; made in house; host or cells: Sf21 insect cells (recombinant baculovirus)
Protocol: In Vitro Chromatin assembly: Chromatin template for in vitro transcription experiments was assembled and characterized as described earlier (8).
as §3
as §4, with “assay.” for “assay. For the DNA transcription assays and chromatin transcription inhibition assays, the Lysyl CoA step was omitted.”
Target sequence in this assay (Q09472 whole entry): as above

p300 [5] = target: T2, p300; conditions: cited from earlier work
Target sequence in this assay (Q09472 whole entry, species assumed): as the sequence (Q09472 whole entry) above

Question: Which “inhibitory activity against histone acetyltransferases” value [1] does the source give for `O=C(O)c1ccccc1O` [salicylic acid] here?
Answer: Its value is “Neither salicylic acid nor benzoic acid shown any inhibitory activity”.

Question: What does the source list for `CCCCCCCCCCCCCCCc1cccc(O)c1C(=O)O` [anacardic acid, 2-hydroxy-6-pentadecylbenzoic acid]?
Answer: inhibition of HAT activity of PCAF (PCAF): inhibits; effect on transcript levels from DNA template [2]: but not DNA transcription; inhibitory activity towards p300 HAT activity (p300 [3]): inhibits; type of p300-HAT inhibition (double reciprocal plot 1/c.p.m. vs. 1/[Acetyl CoA]) (p300 [3]; increasing [3H]-acetyl CoA, constant amount of core histones): non-competitive; inhibitory activity towards p300 HAT activity (p300 [3]; listed as Anacardic acid): equally potent inhibitory activity; inhibition of p300 HAT activity dependent transcription from the chromatin template (p300 [4]): inhibits

Question: For Lys-CoA, which “inhibition of HAT activity of p300” value (p300 [5]) is on record?
Answer: The value was “specifically inhibit”.

Question: Which “inhibitory activity against histone acetyltransferases” value [1] does the source give for `O=C(O)c1ccccc1` [benzoic acid] here?
Answer: Its value is “Neither salicylic acid nor benzoic acid shown any inhibitory activity”.

Question: Which results are given for `CCCCCCCCCCCCCCCc1cccc(OCC)c1C(=O)Nc1ccc(Cl)c(C(F)(F)F)c1` [CTPB, N-(4-Chloro-3-trifluoromethyl-phenyl)-2-ethoxy-6-pentadecyl-benzamide]?
Answer: increase in histone acetylation levels (p300 [3]): ~5 fold; enhancement of p300 HAT activity (p300 [3]; human core histones): specifically enhances; enhancement of levels of HAT-dependent transcription from chromatin template over DMSO control (p300 [4]; added with p300 and acetyl CoA, 30 min acetylation): 1.6 fold
